Columns and labels:
LNCaP-JAK1 cells [1] = assay: Cell cycle analysis (sub-G1, PI, FACS) of LNCaP-JAK1 cells; format: cell-based, human; conditions: LNCaP-JAK1, IL-6 treatment
Experimental: RPMI (supplemented with 10% FCS, 10 ml) was added post-fixation, after which cells were pelleted, washed twice with cold PBS and re-suspended in PBS supplemented with RNase A (20 μg/ml, 30 minutes). Following additional pelleting, cells were re-suspended in Propidium Iodide (P1) solution (50 μg/ml in PBS) and analyzed by FACS (Becton Dickinson).

LNCaP cells [2] = assay: SILAC proteome analysis of LNCaP cells; conditions: IL-6 5 ng/ml for 16 hours
LNCaP-JAK1 cells [3] = assay: SILAC proteome analysis of LNCaP-JAK1 cells; conditions: for number of ISGs upregulated (of 50 ISGs): LNCaP-JAK1, cytokine treatment alone
Experimental: Stable Isotope Labeling by Amino Acids Analysis (S/LAC)—LNCaP and LNCaP-JAK1 cells were grown in RPMI devoid of lysine and arginine (Thermo, Cat. #A2494401), supplemented with 10% dialyzed FCS (Biological Industries, cat. #04-011-1A) and antibiotics for ten cell divisions (^˜3 weeks). “Heavy” culture medium was supplemented with ^13C6^15N2-lysine (146 mg/ml, cat. #CNLM-291-H) and ^13C6^15N4-arginine (84 mg/ml cat. #CNLM-539-H) both from Cambridge Isotope Laboratories. “Light” labeled culture medium was supplemented with unmodified lysine and arginine at the same concentrations. To avoid potential bias in the analysis, in any given condition, cultures were labeled with heavy (H) or light (L) amino acids; or with the reciprocal labeling. Each H-L pair was repeated twice. Thus, quantification of each condition was based on four independent replicates. Labeled cells, either treated or untreated, were trypsinized, counted, and washed twice in cold PBS. Samples were digested by trypsin and analyzed by Liquid chromatography tandem-mass spectrometry (LC-MS/MS) on Q Exactive hybrid quadrupole-Orbitrap mass spectrometer (Thermo Scientific). The data were analyzed and quantified with MaxQuant 1.5.2.8, using the human Uniprot database. Proteins were identified with false discovery rate (FDR)<0.01.

DU145 cells [4] = assay: Immunofluorescence of NS3-positive infected DU145 cells with or without IFNα; format: cell-based, human; conditions: DU145, IFNα 200 U/ml for 45 hours
Experimental: (§1) Quantification of percentage NS3 positive cells was from multiple (n=5) randomly selected fields, imaged under the same conditions as in FIG. 4D; *p<0.05.
(§2) Immunofluorescence—DU145 or LNCaP cells were seeded (5×10^4 cells/well) onto glass coverslips placed in a 24-well plate, and were infected, or not, with EHDV-TAU-LNCaP, in the presence or absence of IFNα. At 44 hours post infection (hpi) or 2 hours (for IFNα treatment), cells were washed twice with cold PBS (4° C.), fixed (4% paraformaldehyde for 20 minutes), blocked and permeabilized (PBS 1%/BSA 0.1%/Triton 0.1% (PBS/BSA/T) for 30 minutes), and stained with polyclonal anti-NS3 (1:300 dilution in PBS/BSA/T). Alexa-488 or 555-conjugated goat-anti-rabbit antibodies (1:200 dilution in PBS/BSA/T) were used as secondary antibodies. In order to detect nuclear phosphorylated STAT1, cells were fixed (4% paraformaldehyde for 20 minutes) and permeabilized with ice-cold methanol (10 minutes at −20° C.). Cells were stained with Rabbit-anti phospho-Tyr701-STAT1 (1:100 dilution in PBS/BSA/T) for overnight at 4° C. Mounting was with Fluorescence Mounting Medium (Golden Bridge, Mukilteo, Wash., USA, cat. #E1818).

LNCaP cells [5] = assay: Immunofluorescence of NS3-positive infected LNCaP cells with or without IFNα; format: cell-based, human; conditions: IFNα 200 U/ml for 45 hours
Experimental: as §1, §2

DU145 cells [6] = assay: Virus-induced death of DU145 cells with IFN; format: cell-based, human; conditions: DU145, IFN alone
LNCaP cells [7] = assay: IFNα-mediated STAT1 phosphorylation in LNCaP cells (immunoblot); format: cell-based, human
DU145 cells [8] = assay: IFNα-mediated STAT1 phosphorylation in DU145 cells (immunoblot); format: cell-based, human
LNCaP cells [9] = format: cell-based, human
LNCaP-JAK1 cells [10] = assay: IFNα-induced pSTAT1 in LNCaP-JAK1 cells (immunoblot); format: cell-based, human; conditions: LNCaP-JAK1, 200 U/ml for 2 hours
LNCaP-JAK1 cells [11] = assay: qRT-PCR of IFIT5 and IRF7 in LNCaP-JAK1 cells after IFNα; format: cell-based, human; conditions: LNCaP-JAK1, IFNα 200 U/ml for 24 hours
Experimental: The average expression level of untreated cells was taken as 1. *p<0.05.
qRT-PCR—Total RNA was extracted from cells using EZ-RNA kit (Biological Industries, Israel, cat. #20-400-100) according to the manufacturer's instructions. First-strand cDNA synthesis was performed using the iScript cDNA Synthesis Kit (Bio Rad cat. #1708890) according to the manufacturer's instructions, with additional no-RNA control. Real-Time PCR analyses of mRNA levels of the genes of interest, relative to GAPDH mRNA levels were performed in triplicates, using Fast SYBR-green master mix (Applied Biosystems, cat. #4385612) with StepOnePlus Real-Time PCR System (Applied Biosystems, cat. #4376600). Primers were designed to span exon-exon junctions and to produce 80-140 bp amplicons. Gene expression values were calculated based on the comparative threshold cycle method.

LNCaP-JAK1 cells [12] = format: cell-based, human
LNCaP-JAK1 cells [13] = assay: Trypan blue exclusion assay of LNCaP-JAK1 cells; format: cell-based, human
Experimental: Graph depicts mean±SE (n=5) of the percentage of trypan blue permeable cells with and without IFNα. **p<0.005.
Graph depicts mean±SE (n=10).**p<0.005; ns, non-significant.
In the presence of Q-VD-OPh (throughout pre-treatment and infection). **p<0.01.
The indicated cells were treated and infected as in FIG. 9B, and the percentage of dead cells was determined by trypan blue exclusion assay. Graph depicts mean±SE of the percentage of dead cells with and without IFNγ (n=3). **p<0.005; ns (non-significant).
Trypan blue exclusion assay—2×10^5 LNCaP cells/well in a 12-well plate were infected, or not, under the indicated experimental conditions. For each well, detached and attached cells were collected together and mixed with 0.5% trypan blue at a 1:1 ratio. Cells were classified by trypan blue exclusion by light microscopy. Trypan blue (0.5%) was from Beit Haemek Biological Industries, Israel (cat. #03-102-1B).

LNCaP cells [14] = assay: Preliminary experiments, toxicity of TSA to LNCaP cells; format: cell-based, human; conditions: longer incubation periods (84 to 96 hours)
LNCaP-JAK1 cells [15] = assay: Immunoblot of STAT1 and STAT3 phosphorylation after IFNγ in LNCaP-JAK1 cells; format: cell-based, human; conditions: LNCaP-JAK1, IFNγ 25 ng/ml for 20 minutes
Experimental: LNCaP and LNCaP-JAK1 cells were exposed to 25 ng/ml of IFNγ for 20 minutes.

IL-6: Human IL-6 (PeproTech), pleiotropic cytokine
percentage of cells exhibiting sub-G1 DNA content (LNCaP-JAK1 cells [1]): slight increase
number of ISGs upregulated (of 50 ISGs) (LNCaP cells [2]): 3
number of ISGs upregulated (of 50 ISGs) (LNCaP-JAK1 cells [3]): 16

IFNα
effect of IFNα on NS3 signal of EHDV-TAU-LNCaP-infected cultures (DU145 cells [4]): abrogated the NS3 signal
effect of IFNα on EHDV-TAU-LNCaP infection (LNCaP cells [5]): negligible effects
protection from virus-induced death (DU145 cells [6]): significantly protect
pSTAT1 in response to IFNα (LNCaP cells [7]; 200 U/ml for 4 hours): only residual pSTAT1 levels
increase in pSTAT1 levels (LNCaP cells [7]; 30 minutes post stimulation with 200 U/ml IFNα): 4.2±2.5 fold
STAT1 phosphorylation in response to IFNα (DU145 cells [8]; DU145, 200 U/ml for 4 hours): robust STAT1 phosphorylation
increase in pSTAT1 levels (DU145 cells [8]; DU145, 30 minutes post stimulation with 200 U/ml IFNα): 18±11 fold
activation of ISRE luciferase reporter (LNCaP cells [9]): 1.2±0.1 fold
pSTAT1 levels upon IFNα stimulation (LNCaP-JAK1 cells [10]): dramatic increases in pSTAT1 levels
expression of IFIT5 and IRF7 (LNCaP-JAK1 cells [11]): marked induction
effect on production of infectious virions (LNCaP-JAK1 cells [12]): inhibited production of infectious virions
effect on EHDV-TAU-LNCaP-induced cell death (LNCaP-JAK1 cells [13]; LNCaP-JAK1, IFNα 200 U/ml): protection from EHDV-TAU-LNCaP-induced cell death was observed
number of ISGs upregulated (of 50 ISGs) (LNCaP-JAK1 cells [3]): 17
enrichment of ISGs in IFNα-induced proteome changes (LNCaP-JAK1 cells [3]; LNCaP-JAK1 compared to parental LNCaP cells): 24.4%

COC(=O)CC(NC(=O)C(NC(=O)c1ccc2ccccc2n1)C(C)C)C(=O)COc1c(F)cccc1F (stereo not shown) [Q-VD-OPh, Quinolyl-valyl-O-methylaspartyl-[-2,6-difluorophenoxy]-methyl ketone, reference compound]
effect of caspase inhibition on death of infected cells (LNCaP-JAK1 cells [13]; LNCaP-JAK1, Q-VD-OPh 20 μM, regardless of the presence of IL-6): to basal levels

CC(/C=C/C(=O)NO)=C\[C@@H](C)C(=O)c1ccc(N(C)C)cc1 [TSA, trichostatin A]
toxicity to LNCaP cells (LNCaP cells [14]): toxic

B1: IFNγ: human IFNγ (PeproTech) (protein, UniProt P01579 24-161, looked up)
Interferon gamma: QDPYVKEAENLKKYFNAGHSDVADNGTLFLGILKNWKEESDRKIMQSQIVSFYFKLFKNFKDDQSIQKSVETIKEDMNVKFFNSNKKKRDDFEKLTNYSVTDLNVQRKAIHELIQVMAELSPAAKTGKRKRSQMLFRG
effect on death of infected cells (LNCaP-JAK1 cells [13]; LNCaP-JAK1, IFNγ 25 ng/ml): supported oncolysis by non-productive viral infection
STAT activation (LNCaP-JAK1 cells [15]): activated STAT1 (but not STAT3)
number of ISGs induced (LNCaP-JAK1 cells [3]; LNCaP-JAK1, IFNγ 25 ng/ml, 14 hours): 35

— patent US11484558B2, “Epizootic hemorrhagic disease virus—tel aviv university (EHDV-TAU)—oncolytic virus for treating cancer” (Ramot at Tel-Aviv University Ltd., priority 2017, dated 2022)
